Assay results published in patent publication US20260191809A1, “Pharmaceutical Compositions Of D10-Docosahexaenoic Acid Or Esters Thereof” (BioJiva LLC, priority 2022, published 2026).

How the values were obtained:
[1] = mouse, in vivo
Text: Mature adult C57BL/6J mice were fed for 77 days with a customized rodent diet containing 0.5% w/w D-DHA and no natural DHA. The animals were sacrificed, and plasma, red blood cells and retinal tissues were dissected at study Days 8, 19, 38, 77, (six animals per time point, 3 males+3 females). Active D-DHA+DHA were extracted from samples and derivatized into methyl esters with a mixture of heptane/toluene (63:37 by volume), and methanol/dimethoxypropane/sulfuric acid (85:11:4 by volume) by gentle shaking at 80° C. for 2 hours, followed by separation and drying down of the organic phase under nitrogen. D-DHA+DHA methyl esters were structurally identified and quantified by gas chromatography coupled with a tandem mass spectrometry detector and D-DHA substitution levels (in percent of total DHA) were calculated.

geographic atrophy = assay: Protection against geographic atrophy after intravitreal ferric ammonium citrate; type: in vivo, C57BL/6J mice
Text: In this example, two cohorts of adult male wild-type C57BL/6J mice (Jackson Labs) were used. Both cohorts were fed identical feed containing 0.25% or 0.5% D-DHA or matching amounts of DHA as controls. After 4 weeks, the mice were given an intravitreal injection of 1 microliter of 0.5 millimolar ferric ammonium citrate diluted in 0.9% saline (test) or 1 microliter of 0.9% saline (control). Mice were then continued on their respective diets for 4 weeks after injection in order to evaluate whether D-DHA could protect against geographic atrophy which is related to AMD.

[2] = Predicted steady-state D-DHA substitution and plasma decline without dosing in patients, modeled from the mouse data; set-up: species or system human; conditions: for D-DHA substitution rate at steady-state (% of total DHA): DHA in human diet 130 mg
Text: In contrast to controlled experimental diets, naturally occurring DHA is consumed by patients treated with D-DHA which can dilute the relative percentage of administered D-DHA absorbed with the total DHA pool and its final concentration at steady state in blood and eventually in the target tissue such as retina. The data and standard curves referred to above allow for the determination of retinal steady-state active D-DHA concentrations with reasonable accuracy by calculating the D-DHA/total DHA ratio in plasma and/or red blood cells. Table 4 exemplifies this by using a mean daily dietary intake of about 130 mg of DHA per day (which represents the 90th percentile of the mean usual DHA intake by males >51 years of age in the US.
FIGS. 3, 4, 5, and 6 illustrate how measuring plasma and red blood cell active D-DHA concentrations can be used to predict expected retinal steady-state concentrations. With a known fixed daily dose and the measured of active D-DHA substitution rate at steady-state, this also allows to approximate and monitor the mean dietary DHA intake of individual patients and permits either a timely adjustment of the daily D-DHA dose or dietary interventions to reduce natural DHA intake until the desired therapeutic active D-DHA substitution levels, preferably about 50% or more, can be reached.
In each case, the first order kinetics evidence that a dose of 250 mg dose of D-DHA will provide for a steady-state ratio of active D-DHA based on the total DHA concentration present, as set forth in Table 4. Extrapolating backwards from the case in Table 4, a dose of at least 130 mg/day of D-DHA should provide a 1:1 ratio of active D-DHA to DHA. That ratio has been shown above to be therapeutic. And a dose of 250 mg of higher should provide a ratio of 1.9:1 or higher which provides a margin for non-compliance as described herein above.
Tables 5, 6, and 7 are based on Table 2 and describe the time it takes for plasma D-DHA levels to fall below 50% or below 20% with 5 different daily doses of D-DHA in (i) patients in the 90th percentile of daily intake consuming up to 130 mg DHA (Table 5), (ii) those in the 95th percentile with a daily intake of up to 180 mg DHA (Table 6), and (iii) an example of a patient consuming more than one meal of oily fish per week with up to 260 mg daily DHA intake.

[3] = as above; set-up: species or system human
[4] = Daily D-DHA Dose 250 mg, Background DHA/Day 130 mg
[5] = Daily D-DHA Dose 250 mg, Background DHA/Day 180 mg
[6] = Daily D-DHA Dose 250 mg, Background DHA/Day 260 mg
[7] = Daily D-DHA Dose 500 mg, Background DHA/Day 130 mg
[8] = Daily D-DHA Dose 500 mg, Background DHA/Day 180 mg
[9] = Daily D-DHA Dose 500 mg, Background DHA/Day 260 mg
[10] = Daily D-DHA Dose 750 mg, Background DHA/Day 260 mg
[11] = Daily D-DHA Dose 1000 mg, Background DHA/Day 260 mg

[2H]C([2H])(/C=C\CC)/C=C\C([2H])([2H])/C=C\C([2H])([2H])/C=C\C([2H])([2H])/C=C\C([2H])([2H])/C=C\CCC(=O)O [D-DHA, D-10-docosahexaenoic acid]
accretion half-life [1]: ~210 h
protection against geographic atrophy (geographic atrophy; concentration of D-DHA at least 50% of the total DHA in the retina, feed 0.25% or 0.5% D-DHA, 4 weeks after iron injection): fully protected
protection against geographic atrophy (geographic atrophy; lower concentrations of D-DHA to DHA in the retina (below 50%)): protection was achieved but at reduced rates
protection against geographic atrophy (geographic atrophy; ratios of about 1:4 of D-DHA to DHA): protection is accorded
protection against geographic atrophy (geographic atrophy; ratios of at least about 1:1 D-DHA to DHA): maximal
ratio of D-DHA to DHA at steady state ([2]; 250 mg D-DHA per day, on average about 130 mg per day of DHA, plasma, red blood cells, liver, skeletal muscle): 1.92 to 1
Time to reach 20% in Plasma (0.2:1 D-DHA to DHA Ratio) w/o taking oral D-DHA [2, 4]: ≤ 77 days
Time to reach ≤50% in Plasma (1:1 D-DHA to DHA Ratio) w/o taking oral D-DHA [2, 4]: ≤ 22 days
Days to reach ≤50% in Plasma (1:1 D-DHA to DHA Ratio) w/o taking oral D-DHA [2, 5]: ≤ 11 days
Time to reach 20% in Plasma (0.2:1 D-DHA to DHA Ratio) w/o taking oral D-DHA [2, 5]: ≤ 66 days
Days to reach ≤50% in Plasma (1:1 D-DHA to DHA Ratio) w/o taking oral D-DHA [2, 6]: below 50%
Time to reach 20% in Plasma (0.2:1 D-DHA to DHA Ratio) w/o taking oral D-DHA [2, 6]: ≤ 29 days
Time to reach 20% in Plasma (0.2:1 D-DHA to DHA Ratio) w/o taking oral D-DHA [2, 7]: ≤ 46 days
Time to reach ≤50% in Plasma (1:1 D-DHA to DHA Ratio) w/o taking oral D-DHA [2, 7]: ≤ 6 days
Days to reach ≤50% in Plasma (1:1 D-DHA to DHA Ratio) w/o taking oral D-DHA [2, 8]: ≤ 35 days
Time to reach 20% in Plasma (0.2:1 D-DHA to DHA Ratio) w/o taking oral D-DHA [2, 8]: ≤ 90 days
Days to reach ≤50% in Plasma (1:1 D-DHA to DHA Ratio) w/o taking oral D-DHA [2, 9]: ≤ 8 days
Time to reach 20% in Plasma (0.2:1 D-DHA to DHA Ratio) w/o taking oral D-DHA [2, 9]: ≤ 63 days
Time to reach ≤50% in Plasma (1:1 D-DHA to DHA Ratio) w/o taking oral D-DHA ([2]; Daily D-DHA Dose 750 mg, Background DHA/Day 130 mg): ≤ 60 days
Days to reach ≤50% in Plasma (1:1 D-DHA to DHA Ratio) w/o taking oral D-DHA ([2]; Daily D-DHA Dose 750 mg, Background DHA/Day 180 mg): ≤ 49 days
Days to reach ≤50% in Plasma (1:1 D-DHA to DHA Ratio) w/o taking oral D-DHA [2, 10]: ≤ 26 days
Time to reach 20% in Plasma (0.2:1 D-DHA to DHA Ratio) w/o taking oral D-DHA [2, 10]: ≤ 81 days
Time to reach ≤50% in Plasma (1:1 D-DHA to DHA Ratio) w/o taking oral D-DHA ([2]; Daily D-DHA Dose 1000 mg, Background DHA/Day 130 mg): ≤ 70 days
Days to reach ≤50% in Plasma (1:1 D-DHA to DHA Ratio) w/o taking oral D-DHA ([2]; Daily D-DHA Dose 1000 mg, Background DHA/Day 180 mg): ≤ 59 days
Days to reach ≤50% in Plasma (1:1 D-DHA to DHA Ratio) w/o taking oral D-DHA [2, 11]: ≤ 38 days
Time to reach 20% in Plasma (0.2:1 D-DHA to DHA Ratio) w/o taking oral D-DHA [2, 11]: ≤ 93 days
Time to reach ≤50% in Plasma (1:1 D-DHA to DHA Ratio) w/o taking oral D-DHA ([2]; Daily D-DHA Dose 1250 mg, Background DHA/Day 130 mg): ≤ 77 days
Days to reach ≤50% in Plasma (1:1 D-DHA to DHA Ratio) w/o taking oral D-DHA ([2]; Daily D-DHA Dose 1250 mg, Background DHA/Day 180 mg): ≤ 67 days
Days to reach ≤50% in Plasma (1:1 D-DHA to DHA Ratio) w/o taking oral D-DHA ([2]; Daily D-DHA Dose 1250 mg, Background DHA/Day 260 mg): ≤ 47 days
D-DHA substitution rate at steady-state (% of total DHA) ([2]; Fixed daily D-DHA dose 250 mg): 66%
D-DHA substitution rate at steady-state (% of total DHA) ([2]; Fixed daily D-DHA dose 500 mg): 79%
D-DHA substitution rate at steady-state (% of total DHA) ([2]; Fixed daily D-DHA dose 1000 mg): 88%
time to plasma steady state concentration of active D-DHA after the start of therapy ([2]; plasma, patients): about 14 days
time to red blood cell steady state concentration of active D-DHA after the start of therapy ([3]; red blood cell, patients): about 45 days
time to steady state concentration of active D-DHA after start of therapy ([3]; skeletal muscle tissue): about 11 weeks
